Laboratory results from patent publication US20190083638A1, “NICLOSAMIDE-CONJUGATED POLYPEPTIDE NANOPARTICLES” (priority 2017, published 2019).

Legend:
[1] = test system: HCT116 human colon carcinoma cells; assay: In vitro cell proliferation (MTS assay); assay type: cell-based; conditions: HCT-116, read-out: IC50, concentration of NIC (or NIC equivalent) to inhibit proliferation of cells by 50%, HCT116, 72 hours of exposure
Description: HCT116 human colon carcinoma cells were purchased from American Type Culture Collection (Manassas, Va., USA) and maintained in McCoy's 5A medium supplemented with 10% fetal bovine serum (FBS, Atlanta Biologicals, Lawrenceville, Ga., USA), 200 U/ml penicillin, and 50 ng/ml streptomycin (Invitrogen, Grand island, NY, USA). Cells were grown at 37° C. in 5% CO2. The cells were plated at 5,000 cells per well into 96 well plates and treated with compounds (n=3) for 48 hours, at which point the cell proliferation was measured using the colorimetric MTS assay (Promega, Madison, Wis., USA). Values were normalized as a percentage of DMSO treated cells. The dose response data were fit with sigmoidal dose-response using Graphpad Prism.

[2] = test system: Wnt/β-catenin signaling in HCT-116 cells; assay: Western blot of Wnt signaling (cytosolic β-catenin, c-myc, cyclin D1); assay type: cell-based, human; conditions: HCT116, western blotting
Description: Western blots were performed following a procedure similar to that reported previously (Osada et al., Cancer Res., 2011, 71, 4172-4182). […] After treatment, the cytosolic fraction was isolated as previously described (Chen et al., Biochemistry, 2009, 48, 10267-10274). Immunoblot was used to detect the 3-catenin, c-myc and cyclin D1 protein levels in cytosol, with β-actin immunoblots used for loading control.
Wnt signaling activity was quantified as cytosolic β-catenin level by Western blot.

in vivo = conditions: iv
Description: Blood samples were obtained 0.5 h prior to dosing and at 0.08, 0.17, 0.33, 0.67, 1.5, 4, 8, 12, 24 hours after drug administration (n=4 per time point).
Blood samples were obtained at 0.5 h prior to the dosing and at 0.08, 0.17, 0.33, 0.67, 1.5, 4, 8, 12, and 24 h after drug administration.

[3] = Dose escalation / tolerability in mice bearing subcutaneous HCT116 tumors; conditions: male, nude, mouse, in vivo, intravenous, 5 mg/kg BW; mice with tumors, 3 days/week for 2 weeks, tail vein infusion; read-out: maximum tolerated dose
Description: (§1) Controls or drugs were administered by tail vein infusion (50 μL/min) of 500 μL. […] Tumor dimensions and BW were measured 3-4 times a week, and the tumor volume was calculated according to Volume [mm^3]=length×width×depth×½.
(§2) Mice were monitored for BW loss, and euthanized upon exceeding 15% loss in BW or if their tumors grew to a volume greater than 1000 mm3. The maximum tolerated dose (MTD) was determined in mice with tumors. Cumulative survival curves were compared using Kaplan-Meier analysis, and the Sidak test, Tukey Test and Wilcoxon test were calculated using GraphPad Prism 6 software.

HCT-116 tumors = assay: Tumor inhibition in HCT-116 cell xenograft model; assay type: in vivo, male nude mice; conditions: i.v. every third day for two weeks, NIC 5 mg/kg, CP—NIC 20 mg/kg NIC-equivalent, n=8
Description: Prior to in vivo implantation, HCT116 cells were washed twice in Minimum Essential Media (MEM) (51200-038; Invitrogen; Carlsbad, Calif.). HCT116 cells were implanted in the right flank of male nude mice by subcutaneous injection of 1-2×10^6 cells in 50 μL. All animals were treated in accordance with National Institute of Health Guide for the Care and Use of Laboratory Animals under protocols approved by the Duke University Institutional Animal Care and Use Committee.
as §1, §2
Body-weight loss was also measured throughout the treatment of free NIC and CP—NIC conjugate. All treatments were tolerated for the period of the study (FIG. 11). […] It was hypothesized that the mechanism of action of NIC released from nanoparticles in this study is the same as free NIC as previously characterized.

[4] = Pilot study, LD50 of NIC formulated in DMA/PEG 400; design: species or system nude mice; conditions: nude, mouse, in vivo
[5] = test system: tumor cell lines from multiple tumor types; conditions: breast, lung, prostate, ovary, blood, pancreas, colon tumor cell lines; read-out: IC50 range, inhibition of proliferation of tumor cell lines; cited from earlier work
[6] = free drug solution at 200 mg/kg BW; cited from earlier work

O=C(Nc1ccc([N+](=O)[O-])cc1Cl)c1cc(Cl)ccc1O [NIC, Niclosamide]
IC50 [1]: 850 nM | levels of Wnt target proteins c-myc and cyclin D1 [2]: similarly reduced | % AUC-inf extrapolated (AUC-last/AUC-inf) * 100 (in vivo; CD1, mouse): 0.33 ± 0.45% | MRT inf (in vivo; CD1, mouse): 54 ± 28.8 min | MRT last (in vivo; CD1, mouse): 54 ± 26.4 min | Tmax (in vivo; CD1, mouse): 12 ± 10.2 min | half-life (in vivo; CD1, mouse): 60 ± 13.2 min | Cmax (in vivo; CD1, mouse, 128 mg/kg): 6200 ± 4230 ng/mL | Vss (=CL × MRT; overall distrib. Volume at steay state) (in vivo; mouse): 0.7 ± 0.28 L (per kg BW) | MTD at 2 weeks [3]: 5 mg/kg | median survival time (HCT-116 tumors; Kaplan-Meier): 16 days | mean tumor volume (HCT-116 tumors; ten days after start of treatment): 661 mm3 | LD50 [4]: 5 mg/kg | IC50 [5]: 130 to 4000 nM | time plasma levels of NIC were above the IC50 for Wnt inhibition [6]: less than 1 h
